1 compound from ChEMBL document CHEMBL4330140, “Novel human adenosine receptor antagonists based on the 7-amino-thiazolo[5,4-d]pyrimidine scaffold. Structural investigations at the 2-, 5- and 7-positions to enhance affinity and tune selectivity” (Bioorg Med Chem Lett, 2019) can be followed below.

In one experiment the target is T1, Adenosine receptor A2b (Homo sapiens, UniProt P29275).
T1 sequence (P29275 whole entry): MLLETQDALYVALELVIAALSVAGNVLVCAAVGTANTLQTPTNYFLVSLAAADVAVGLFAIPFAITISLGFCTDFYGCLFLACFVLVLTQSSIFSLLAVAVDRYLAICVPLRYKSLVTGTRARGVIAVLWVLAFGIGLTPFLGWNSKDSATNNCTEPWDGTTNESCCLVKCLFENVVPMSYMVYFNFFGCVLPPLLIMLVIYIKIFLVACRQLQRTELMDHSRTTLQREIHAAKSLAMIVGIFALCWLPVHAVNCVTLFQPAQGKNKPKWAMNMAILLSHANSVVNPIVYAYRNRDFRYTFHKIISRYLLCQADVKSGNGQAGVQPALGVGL
Put plainly: Antagonist activity at human adenosine A2B receptor expressed in CHO cells assessed as inhibition of NECA-induced increase in cAMP accumulation preincubated for 10 mins followed by NECA addition by GloSensor cAMP assay. It is filed as functional, cell-based. Background: Changes in cAMP serve as a functional read-out for many G protein-coupled receptors.

The species named for experiment [1] is Homo sapiens. Put plainly: Selectivity ratio of Ki for displacement of [3H]HEMADO from human adenosine A3 receptor expressed in CHO cells to Ki for displacement of [3H]NECA from human adenosine A2A receptor expressed in CHO cells. It counts as cell-based.
For experiment [2], the target named is T2, Adenosine receptor A2a (Homo sapiens, UniProt P29274). Briefly: Antagonist activity at human adenosine A2A receptor expressed in CHO cells assessed as inhibition of NECA-induced increase in cAMP accumulation preincubated for 10 mins followed by NECA addition by GloSensor cAMP assay. It counts as functional, cell-based.
T2 sequence (P29274 whole entry): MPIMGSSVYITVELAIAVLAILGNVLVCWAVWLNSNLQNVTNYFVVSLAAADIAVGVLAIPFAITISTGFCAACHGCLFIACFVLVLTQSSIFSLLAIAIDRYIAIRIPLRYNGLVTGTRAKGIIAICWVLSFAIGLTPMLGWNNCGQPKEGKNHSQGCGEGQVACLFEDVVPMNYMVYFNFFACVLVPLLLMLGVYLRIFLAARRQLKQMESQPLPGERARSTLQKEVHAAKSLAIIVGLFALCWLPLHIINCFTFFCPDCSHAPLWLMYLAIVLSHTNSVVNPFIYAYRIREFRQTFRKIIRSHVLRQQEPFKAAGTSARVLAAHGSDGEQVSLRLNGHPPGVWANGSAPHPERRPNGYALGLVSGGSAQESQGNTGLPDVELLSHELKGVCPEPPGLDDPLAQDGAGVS
In experiment [3] the target is T2, Adenosine receptor A2a. Put plainly: Displacement of [3H]NECA from human adenosine A2A receptor expressed in CHO cells after 3 hrs by scintillation counting method. It is filed as cell-based. Background: Displacement assays read how much labelled ligand stays bound in the presence of the test substance.
Experiment [4] is filed under the species Homo sapiens. Briefly: Selectivity ratio of Ki for displacement of [3H]CCPA from human adenosine A1 receptor expressed in CHO cells to Ki for displacement of [3H]NECA from human adenosine A2A receptor expressed in CHO cells. It is filed as cell-based.
For a further experiment, the target named is T3, Adenosine receptor A1 (Homo sapiens, UniProt P30542).
T3 sequence (P30542 whole entry): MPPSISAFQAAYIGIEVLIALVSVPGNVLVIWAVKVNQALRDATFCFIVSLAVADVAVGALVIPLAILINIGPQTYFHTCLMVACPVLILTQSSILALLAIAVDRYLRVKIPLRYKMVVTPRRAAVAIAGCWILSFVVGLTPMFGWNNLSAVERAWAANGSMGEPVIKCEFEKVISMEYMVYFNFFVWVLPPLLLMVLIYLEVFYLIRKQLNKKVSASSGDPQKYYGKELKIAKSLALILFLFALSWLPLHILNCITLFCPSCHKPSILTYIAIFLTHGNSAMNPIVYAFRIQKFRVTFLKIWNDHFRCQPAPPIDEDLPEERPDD
Briefly: Displacement of [3H]CCPA from human adenosine A1 receptor expressed in CHO cells after 3 hrs by scintillation counting method. It counts as cell-based.

Another experiment concerns the target T4, Adenosine receptor A3 (Homo sapiens, UniProt P0DMS8).
T4 sequence (P0DMS8 whole entry): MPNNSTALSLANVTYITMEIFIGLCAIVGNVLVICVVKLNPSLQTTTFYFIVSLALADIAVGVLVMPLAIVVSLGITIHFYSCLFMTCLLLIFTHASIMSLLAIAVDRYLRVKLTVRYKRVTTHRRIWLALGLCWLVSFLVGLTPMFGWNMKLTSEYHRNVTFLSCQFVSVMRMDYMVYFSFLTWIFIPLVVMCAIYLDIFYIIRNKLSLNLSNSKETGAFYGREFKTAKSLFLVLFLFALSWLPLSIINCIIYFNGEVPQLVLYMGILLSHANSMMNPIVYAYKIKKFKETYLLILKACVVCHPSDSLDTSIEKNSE
Briefly: Displacement of [3H]HEMADO from human adenosine A3 receptor expressed in CHO cells after 3 hrs by scintillation counting method. It counts as cell-based.

For orientation: IC50 means the point on the concentration scale where inhibition reaches its midpoint. In general, Ki refers to the equilibrium dissociation constant of an inhibitor or competing ligand from its target. High values mean lower affinity, low ones higher affinity.

The structures appear in SMILES notation.

Take `Nc1nc(-c2ccco2)nc2sc(-c3ccccc3)nc12`: the IC50 at Adenosine receptor A2b was more than 30000 nM; at Adenosine receptor A2a [2] it was 163 nM. Also, the Ratio Ki in the experiment filed under Homo sapiens [1] was found to be 1.6; in the experiment filed under Homo sapiens [4] it was 39.4. In addition, the values for the Ki at Adenosine receptor A2a [3], on Adenosine receptor A1 and on Adenosine receptor A3 were 1.7 nM, 67 nM and 2.8 nM, respectively.
